According to ChEMBL document CHEMBL1142050, “A two-state homology model of the hERG K+ channel: application to ligand binding” (Bioorg Med Chem Lett, 2005):

Key:
[1] = target: T1, Voltage-gated inwardly rectifying potassium channel KCNH2 (Homo sapiens, UniProt Q12809); assay: Inhibition of human voltage-gated potassium channel subunit Kv11.1 (ERG K+ channel) in open state; type: functional
[2] = target: T1, Voltage-gated inwardly rectifying potassium channel KCNH2; assay: Inhibition of partially open human voltage-gated potassium channel subunit Kv11.1 (ERG K+ channel)

T1 sequence (Q12809 whole entry): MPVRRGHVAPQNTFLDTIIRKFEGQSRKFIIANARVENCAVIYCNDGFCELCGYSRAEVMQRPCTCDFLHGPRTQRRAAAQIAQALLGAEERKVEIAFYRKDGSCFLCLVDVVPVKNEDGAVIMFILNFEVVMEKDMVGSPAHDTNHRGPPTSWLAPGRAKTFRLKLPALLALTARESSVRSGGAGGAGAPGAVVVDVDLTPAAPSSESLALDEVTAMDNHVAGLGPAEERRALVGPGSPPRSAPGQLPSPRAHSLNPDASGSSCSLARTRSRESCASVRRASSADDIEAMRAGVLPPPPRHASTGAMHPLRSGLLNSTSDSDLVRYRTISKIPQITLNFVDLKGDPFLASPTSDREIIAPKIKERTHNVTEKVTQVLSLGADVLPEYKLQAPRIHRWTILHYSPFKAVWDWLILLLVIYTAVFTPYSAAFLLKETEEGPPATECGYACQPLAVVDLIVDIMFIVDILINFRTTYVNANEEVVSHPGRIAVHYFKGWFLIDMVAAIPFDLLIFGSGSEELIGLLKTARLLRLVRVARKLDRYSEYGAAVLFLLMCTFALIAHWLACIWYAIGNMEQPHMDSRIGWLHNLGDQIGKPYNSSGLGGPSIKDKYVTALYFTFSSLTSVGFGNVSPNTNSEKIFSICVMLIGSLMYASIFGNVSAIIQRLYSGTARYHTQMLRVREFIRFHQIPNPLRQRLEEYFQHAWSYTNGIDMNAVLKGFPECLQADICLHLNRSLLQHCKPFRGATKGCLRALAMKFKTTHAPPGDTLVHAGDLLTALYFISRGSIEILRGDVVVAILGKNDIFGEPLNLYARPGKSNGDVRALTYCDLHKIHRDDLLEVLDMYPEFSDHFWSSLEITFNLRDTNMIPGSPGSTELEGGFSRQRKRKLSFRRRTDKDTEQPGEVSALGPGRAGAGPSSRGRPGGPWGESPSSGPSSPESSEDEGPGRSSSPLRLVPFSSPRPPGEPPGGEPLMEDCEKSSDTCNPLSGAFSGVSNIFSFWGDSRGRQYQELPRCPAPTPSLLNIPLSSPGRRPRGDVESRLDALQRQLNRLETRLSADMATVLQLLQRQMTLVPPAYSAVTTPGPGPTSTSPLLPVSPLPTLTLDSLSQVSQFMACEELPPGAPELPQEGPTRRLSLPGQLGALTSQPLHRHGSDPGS

| SMILES | IC50 [1] | IC50 [2] |
| --- | --- | --- |
| C[C@@H]1CN(c2c(F)c(N)c3c(=O)c(C(=O)O)cn(C4CC4)c3c2F)C[C@H](C)N1 [SPARFLOXACIN] | 26300 nM | – |
| CN(c1nccc(=O)[nH]1)C1CCN(c2nc3ccccc3n2Cc2ccc(F)cc2)CC1 [MIZOLASTINE] | – | 355 nM |
| CN1CCN(CCCCN2C(=O)CN(/N=C/c3ccc(-c4ccc(Cl)cc4)o3)C2=O)CC1 | 562 nM | – |
